Measured values from patent US12195427B2, “MASP-2 inhibitors and methods of use” (priority 2018, dated 2025).

Biological target: MASP-2 CCP2-SP (Homo sapiens (Human), UniProt O00187)
Experiment: MASP-2 co-crystallization, X-ray crystallography and structure analysis (H-bonds, van der Waals contacts);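 as to Ligand-pharmacophore element distance, pharmacophore element C2: distance from averaged pharmacophore element to bound ligand; missing value means element absent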;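 as to Ligand-pharmacophore element distance, pharmacophore element C3: distance from averaged pharmacophore element to bound ligand; missing value means element absent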;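 as to Ligand-pharmacophore element distance, pharmacophore element C4: distance from averaged pharmacophore element to bound ligand; missing value means element absent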;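 as to Ligand-pharmacophore element distance, pharmacophore element C5: distance from averaged pharmacophore element to bound ligand; missing value means element absent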
Set-up: van der Waals contact distance, MASP-2 HIS 483 atom CD2 / van der Waals contact distance, MASP-2 HIS 483 atom NE2 / van der Waals contact distance, SER 654 C to compound atom / van der Waals contact distance, SER 654 O to compound atom / van der Waals contact distance, TRP 655 C to compound atom / van der Waals contact distance, MASP-2 GLY 528 atom CA / van der Waals contact distance TRP 655 atom CZ3 / van der Waals contact distance TRP 655 atom N / van der Waals contact distance TRP 655 atom CE3 / van der Waals contact distance GLY 656 atom C / van der Waals contact distance GLY 656 atom CA / van der Waals contact distance GLY 656 atom O / van der Waals contact distance, MASP-2 TYR 607 atom CD1 / van der Waals contact distance, MASP-2 PRO 606 atom O / d(C3,CA1) / d(CA1,N1)2 / d(H4,O1) / d(H4,O2) / d(O1,O2) / d(CA1,O2) / d(CA6,O1) / d(CA6,O2) / d(CA1,C5) / d(O2,H3) / d(N2,C2) / d(CA5,N2) / d(N2,C4) / d(N2,C6) / d(N2,CA3) / d(N2,O3) / d(O4,H2): unit not given beside the values
Settings: for Ligand-pharmacophore element distance, pharmacophore element C2 / Ligand-pharmacophore element distance, pharmacophore element C3 / Ligand-pharmacophore element distance, pharmacophore element C4 / Ligand-pharmacophore element distance, pharmacophore element C5 / Ligand-pharmacophore element distance, pharmacophore element C6 / Ligand-pharmacophore element distance, pharmacophore element C7 / Ligand-pharmacophore element distance, pharmacophore element CA1 / Ligand-pharmacophore element distance, pharmacophore element CA2 / Ligand-pharmacophore element distance, pharmacophore element CA3 / Ligand-pharmacophore element distance, pharmacophore element CA4 / Ligand-pharmacophore element distance, pharmacophore element CA5 / Ligand-pharmacophore element distance, pharmacophore element CA6: Table A4-1; for d(CA1,C5) / d(CA1,O1) / d(CA1,O2) / d(CA1,O4) / d(H4,O1) / d(H4,O2) / d(O1,O2) / d(O4,H2): Table A5-1 pharmacophore: distance between elements, S2/S1 region; for d(N2,C2) / d(N2,CA2) / d(O2,H3) / d(O2,N2): Table A5-2 pharmacophore distance, S3/S4 region; for a(C5, CA1, O1) / a(CA1, O1, O2) / a(CA1, O4, H2) / a(O1, CA1, O4) / a(O1, O2, H4): Table A6-1 pharmacophore angle; for a(O1, O2, H3) / a(O1, O2, N2) / a(O2, N2, C2) / a(O2, N2, CA2): Table A6-2 pharmacophore angle; for Pharmacophore torsion angle a(C5, CA1, O1, H4) / Pharmacophore torsion angle a(H4, O1, O2, H3) / Pharmacophore torsion angle a(H4, O1, O2, N2) / Pharmacophore torsion angle a(O1, H4, O2, CA1) / Pharmacophore torsion angle a(O1, O2, N2, C2): Table A7-1; for Pharmacophore torsion angle a(C5, CA1, O1, H4) / Pharmacophore torsion angle a(H4, O1, O2, H3) / Pharmacophore torsion angle a(H4, O1, O2, N2) / Pharmacophore torsion angle a(O1, H4, O2, CA1) / Pharmacophore torsion angle a(O1, O2, N2, C2) / Pharmacophore torsion angle a(O1, O2, N2, CA2): between pharmacophore elements of the bound compound; for Pharmacophore torsion angle a(O1, O2, N2, CA2): Table A7-2
From the text: This example illustrates the preparation of recombinant MASP-2 protein, based on UniProt O00187, human mannan-binding lectin serine protease 2. Expression constructs for human MASP-2 CCP2-SP and CCP2-SP-6HIS were generated for recombinant expression in E. coli cells.
Typically, crystallization hits were obtained by screening against […] 96-well crystallization reagent kits (GRAS6, GRAS2, Hampton Research; MORPHEUS, Molecular Dimensions; Wizard 1&2 Cryo, Rigaku Reagents) and crystal growth was inspected by optical microscopy. Crystals were used directly or further optimized for X-ray diffraction. Crystals were captured with cryogenic loops and dipped into liquid nitrogen directly or cryoprotected with a 20% glycerol in crystallization formulation before flash-cooling in liquid nitrogen.
Thereafter crystals are transferred once or twice for soaking within the crystallization solution containing the MASP-2 inhibitor.
Crystals were diffracted with synchrotron X-rays of […] and X-ray diffraction datasets were collected at beamlines SSRL BL9-2, BL14-1, BL12-2 as well as ALS sector 5 using Dectris Pilatus and Eiger detectors. Structures were determined by molecular replacement using portions of the structure 1Q3X as search models and partially refined with Buster 2.10.2 or Refmac 5.8. […] When multiple ligand poses were observed, for instance arising from multiple molecules in the asymmetric unit or refined dual poses within the same molecule, only one pose was selected and analyzed.
LigPlot+ calls these ‘nonbonded contacts’ or ‘hydrophobic contacts’. Despite the name, there are atom pairings that include possible H-bonds. Thus, in some instances, the Table A2 also contains H-bond interactions.

[1] = Table A8-6, nearest protein atom in cell to the left

Chain of MASP-2 CCP2-SP (O00187 445-686): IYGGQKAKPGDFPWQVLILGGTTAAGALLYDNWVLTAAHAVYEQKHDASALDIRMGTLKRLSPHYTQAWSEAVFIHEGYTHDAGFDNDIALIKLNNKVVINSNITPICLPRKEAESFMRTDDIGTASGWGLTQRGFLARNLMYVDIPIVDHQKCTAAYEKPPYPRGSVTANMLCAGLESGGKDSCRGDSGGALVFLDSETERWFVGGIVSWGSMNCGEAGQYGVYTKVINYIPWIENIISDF
Chain of MASP-2 CCP2-SP (O00187 364-432 partner): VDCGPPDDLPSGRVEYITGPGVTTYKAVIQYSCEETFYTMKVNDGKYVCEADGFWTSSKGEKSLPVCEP

C[C@H](NC(=O)[C@H]1C[C@@H](c2ccccc2)CCN1)C(=O)NCc1cc(Cl)ccc1O.Cl [1078_9]
Ligand-pharmacophore element distance, pharmacophore element C2: 0.67 | Ligand-pharmacophore element distance, pharmacophore element C3: 0 | Ligand-pharmacophore element distance, pharmacophore element C4: 0 | Ligand-pharmacophore element distance, pharmacophore element C5: 0.46 | Ligand-pharmacophore element distance, pharmacophore element C6: 0 | Ligand-pharmacophore element distance, pharmacophore element C7: 0 | Ligand-pharmacophore element distance, pharmacophore element CA1: 1.62 | Ligand-pharmacophore element distance, pharmacophore element CA2: 0.56 | Ligand-pharmacophore element distance, pharmacophore element CA3: 0 | Ligand-pharmacophore element distance, pharmacophore element CA4: 0 | Ligand-pharmacophore element distance, pharmacophore element CA5: 0 | Ligand-pharmacophore element distance, pharmacophore element CA6: 0 | d(CA1,C5): 3.11 | d(CA1,O1): 4.31 | d(CA1,O2): 4.77 | d(CA1,O4): 2.74 | d(H4,O1): 2.21 | d(H4,O2): 2.49 | d(O1,O2): 3.11 | d(O4,H2): 0.98 | d(N2,C2): 1.46 | d(N2,CA2): 5.71 | d(O2,H3): 3.06 | d(O2,N2): 2.89 | a(C5, CA1, O1): 161.68 | a(CA1, O1, O2): 117.85 | a(CA1, O4, H2): 128.05 | a(O1, CA1, O4): 66.67 | a(O1, O2, H4): 97.24 | a(O1, O2, H3): 142.04 | a(O1, O2, N2): 146.14 | a(O2, N2, C2): 119.45 | a(O2, N2, CA2): 153.36 | Pharmacophore torsion angle a(C5, CA1, O1, H4): 14.92 | Pharmacophore torsion angle a(H4, O1, O2, H3): −116.62 | Pharmacophore torsion angle a(H4, O1, O2, N2): −110.81 | Pharmacophore torsion angle a(O1, H4, O2, CA1): −50.72 | Pharmacophore torsion angle a(O1, O2, N2, C2): 144.64 | Pharmacophore torsion angle a(O1, O2, N2, CA2): 146.06

C[C@H](NC(=O)[C@H]1C[C@@H](c2ccccc2)CCN1)C(=O)NCc1cc(Cl)ccc1O.Cl [1078_10]
Ligand-pharmacophore element distance, pharmacophore element C2: 0.49 | Ligand-pharmacophore element distance, pharmacophore element C3: 0 | Ligand-pharmacophore element distance, pharmacophore element C4: 0 | Ligand-pharmacophore element distance, pharmacophore element C5: 0.3 | Ligand-pharmacophore element distance, pharmacophore element C6: 0 | Ligand-pharmacophore element distance, pharmacophore element C7: 0 | Ligand-pharmacophore element distance, pharmacophore element CA1: 1.34 | Ligand-pharmacophore element distance, pharmacophore element CA2: 0.49 | Ligand-pharmacophore element distance, pharmacophore element CA3: 0 | Ligand-pharmacophore element distance, pharmacophore element CA4: 0 | Ligand-pharmacophore element distance, pharmacophore element CA5: 0 | Ligand-pharmacophore element distance, pharmacophore element CA6: 0 | d(CA1,C5): 3.12 | d(CA1,O1): 4.35 | d(CA1,O2): 4.37 | d(CA1,O4): 2.76 | d(H4,O1): 3.11 | d(H4,O2): 3.46 | d(O1,O2): 2.72 | d(O4,H2): 0.97 | d(N2,C2): 1.48 | d(N2,CA2): 5.72 | d(O2,H3): 1.97 | d(O2,N2): 2.74 | a(C5, CA1, O1): 160.63 | a(CA1, O1, O2): 108.49 | a(CA1, O4, H2): 127.01 | a(O1, CA1, O4): 71.55 | a(O1, O2, H4): 131.53 | a(O1, O2, H3): 146.00 | a(O1, O2, N2): 152.80 | a(O2, N2, C2): 131.78 | a(O2, N2, CA2): 156.19 | Pharmacophore torsion angle a(C5, CA1, O1, H4): −9.97 | Pharmacophore torsion angle a(H4, O1, O2, H3): −152.67 | Pharmacophore torsion angle a(H4, O1, O2, N2): −164.78 | Pharmacophore torsion angle a(O1, H4, O2, CA1): −84.11 | Pharmacophore torsion angle a(O1, O2, N2, C2): 123.40 | Pharmacophore torsion angle a(O1, O2, N2, CA2): 136.18 | Pharmacophore protein distance to MET_658 (first MET_658 column) (Table A8-6, 6th residue column, nearest protein atom in cell to the left): 3.04 | Pharmacophore protein distance to MET_658 (second MET_658 column) (Table A8-6, 9th residue column, nearest protein atom in cell to the left): 3.81 | Pharmacophore protein distance to GLY_528 [1]: 3.40 | Pharmacophore protein distance to PHE_529 [1]: 3.08 | Pharmacophore protein distance to PRO_608 [1]: 3.66 | Pharmacophore protein distance to SER_611 [1]: 2.78 | Pharmacophore protein distance to TRP_655 (Table A8-6, pharmacophore elements C6, CA3, O3, H1, nearest protein atom in cell to the left): 3.89

C[C@H](NC(=O)[C@H]1C[C@@H](c2ccccc2)CCN1)C(=O)NCc1cc(Cl)ccc1O.Cl [1078_11]
Ligand-pharmacophore element distance, pharmacophore element C2: 0.6 | Ligand-pharmacophore element distance, pharmacophore element C3: 0 | Ligand-pharmacophore element distance, pharmacophore element C4: 0 | Ligand-pharmacophore element distance, pharmacophore element C5: 0.41 | Ligand-pharmacophore element distance, pharmacophore element C6: 0 | Ligand-pharmacophore element distance, pharmacophore element C7: 0 | Ligand-pharmacophore element distance, pharmacophore element CA1: 1.64 | Ligand-pharmacophore element distance, pharmacophore element CA2: 0.64 | Ligand-pharmacophore element distance, pharmacophore element CA3: 0 | Ligand-pharmacophore element distance, pharmacophore element CA4: 0 | Ligand-pharmacophore element distance, pharmacophore element CA5: 0 | Ligand-pharmacophore element distance, pharmacophore element CA6: 0 | d(CA1,C5): 3.12 | d(CA1,O1): 4.69 | d(CA1,O2): 4.58 | d(CA1,O4): 2.75 | d(H4,O1): 2.26 | d(H4,O2): 2.51 | d(O1,O2): 3.42 | d(O4,H2): 0.97 | d(N2,C2): 1.47 | d(N2,CA2): 5.75 | d(O2,H3): 3.05 | d(O2,N2): 2.97 | a(C5, CA1, O1): 161.80 | a(CA1, O1, O2): 109.94 | a(CA1, O4, H2): 130.34 | a(O1, CA1, O4): 59.87 | a(O1, O2, H4): 88.73 | a(O1, O2, H3): 137.81 | a(O1, O2, N2): 142.32 | a(O2, N2, C2): 120.15 | a(O2, N2, CA2): 152.82 | Pharmacophore torsion angle a(C5, CA1, O1, H4): 37.14 | Pharmacophore torsion angle a(H4, O1, O2, H3): −120.02 | Pharmacophore torsion angle a(H4, O1, O2, N2): −112.40 | Pharmacophore torsion angle a(O1, H4, O2, CA1): −55.96 | Pharmacophore torsion angle a(O1, O2, N2, C2): 136.21 | Pharmacophore torsion angle a(O1, O2, N2, CA2): 138.54

C[C@H](NC(=O)[C@H]1C[C@@H](c2ccccc2)CCN1)C(=O)NCc1cc(Cl)ccc1O.Cl [1078_12]
Ligand-pharmacophore element distance, pharmacophore element C2: 0.4 | Ligand-pharmacophore element distance, pharmacophore element C3: 0 | Ligand-pharmacophore element distance, pharmacophore element C4: 0 | Ligand-pharmacophore element distance, pharmacophore element C5: 0.52 | Ligand-pharmacophore element distance, pharmacophore element C6: 0 | Ligand-pharmacophore element distance, pharmacophore element C7: 0 | Ligand-pharmacophore element distance, pharmacophore element CA1: 1.43 | Ligand-pharmacophore element distance, pharmacophore element CA2: 0.64 | Ligand-pharmacophore element distance, pharmacophore element CA3: 0 | Ligand-pharmacophore element distance, pharmacophore element CA4: 0 | Ligand-pharmacophore element distance, pharmacophore element CA5: 0 | Ligand-pharmacophore element distance, pharmacophore element CA6: 0 | d(CA1,C5): 3.12 | d(CA1,O1): 4.34 | d(CA1,O2): 4.51 | d(CA1,O4): 2.74 | d(H4,O1): 3.08 | d(H4,O2): 3.40 | d(O1,O2): 2.81 | d(O4,H2): 0.98 | d(N2,C2): 1.45 | d(N2,CA2): 5.74 | d(O2,H3): 2.85 | d(O2,N2): 2.84 | a(C5, CA1, O1): 161.92 | a(CA1, O1, O2): 111.74 | a(CA1, O4, H2): 127.55 | a(O1, CA1, O4): 67.44 | a(O1, O2, H4): 128.90 | a(O1, O2, H3): 150.80 | a(O1, O2, N2): 154.56 | a(O2, N2, C2): 130.32 | a(O2, N2, CA2): 157.60 | Pharmacophore torsion angle a(C5, CA1, O1, H4): 11.21 | Pharmacophore torsion angle a(H4, O1, O2, H3): −120.32 | Pharmacophore torsion angle a(H4, O1, O2, N2): −108.09 | Pharmacophore torsion angle a(O1, H4, O2, CA1): −75.33 | Pharmacophore torsion angle a(O1, O2, N2, C2): 114.97 | Pharmacophore torsion angle a(O1, O2, N2, CA2): 110.39
